A short description of data set [1]: Hygroscopicity test. The following applies: 25° C.±1° C., relative humidity 80%±2%, 24 hours, (m3−m2)/(m2−m1)*100%. Type of data set: physicochemical. On the procedure:
Hygroscopicity tests of ((E)-N-(3-cyano-7-ethoxy-4-((4-phenoxyphenyl)amino) quinolin-6-yl)-4-(dimethylamino)but-2-enamide in different acid salts have been carried out by the following method:
Take the dry glass weighing bottle which has a plug (outer diameter is 50 mm, high is 15 mm); placed in a suitable 25° C.±1° C. constant temperature dryer (place a saturated solution of ammonium chloride or ammonium sulfate in the lower part) or artificial climate box (set the temperature to 25° C.±1° C. and the relative humidity to 80%±2%) one day before the test, accurately weighting its weight (m1).
Take appropriate amount of the test sample and lay it in the above weighing bottle, the thickness of the test sample is generally 1 mm, accurately weighting its weight (m2).
Open the weighing bottle and place it at the constant temperature and humidity as above-mentioned for 24 hours with its plug.
Accurately weighting its weight (m3), including the weighing bottle and its plug. Percentage of weight gain=(m3−m2)/(m2−m1)*100%

Data set [2] can be described thus: Crystallinity by PXRD. Type of data set: physicochemical. On the procedure:
PXRD is performed in Rigaku UltimaIV diffractometer, copper target, λ=1.5406 A; working voltage 40 kv; working current: 40 Ma; scan speed: 60.000 deg./min; scan range: 4.0000->60.0000 deg.

Data set [3] can be described thus: Bioavailability in SD rats (I.V. and PO). Type of data set: in vivo. The following applies: rat, blood, male, I.V. 5 mg/kg, PO 10 mg/kg via gavage.

Where a name gives a salt, the structure may show the parent alone. Read-outs that look alike come from different tables or passages of the source.

`CCOc1cc2ncc(C#N)c(Nc3ccc(Oc4ccccc4)cc3)c2cc1NC(=O)/C=C/CN(C)C` [Citrate salt, (E)-N-(3-cyano-7-ethoxy-4-((4-phenoxyphenyl)amino)quinolin-6-yl)-4-(dimethylamino)but-2-enamide Citrate]: the “weight gain (%)” value in data set [1] (Citrate) came to 27.04%. The “Crystallinity by PXRD” value in data set [2] (Citrate) was “crystalline”. In data set [3], the bioavailability (in general, dose-corrected exposure relative to a reference, in per cent) came out at 36.7%.
With `CCOc1cc2ncc(C#N)c(Nc3ccc(Oc4ccccc4)cc3)c2cc1NC(=O)/C=C/CN(C)C` [L-malate salt, (E)-N-(3-cyano-7-ethoxy-4-((4-phenoxyphenyl)amino)quinolin-6-yl)-4-(dimethylamino)but-2-enamide Malate], the “weight gain (%)” value in data set [1] (Malate) was 16.36%. The “Crystallinity by PXRD” value in data set [2] (Malate) is on record as “amorphous”.
As to `CCOc1cc2ncc(C#N)c(Nc3ccc(Oc4ccccc4)cc3)c2cc1NC(=O)/C=C/CN(C)C.O=C(O)/C=C\C(=O)O` [Maleate salt, (E)-N-(3-cyano-7-ethoxy-4-((4-phenoxyphenyl)amino)quinolin-6-yl)-4-(dimethylamino)but-2-enamide Maleate], the “weight gain (%)” value in data set [1] is recorded as 0.2%. For the same compound, the “Crystallinity by PXRD” value in data set [2] was “crytalline”. Moreover, the bioavailability in data set [3] was found to be 49.6%.
With `CCOc1cc2ncc(C#N)c(Nc3ccc(Oc4ccccc4)cc3)c2cc1NC(=O)/C=C/CN(C)C` [Hydrochloride acid salt, (E)-N-(3-cyano-7-ethoxy-4-((4-phenoxyphenyl)amino)quinolin-6-yl)-4-(dimethylamino)but-2-enamide Hydrochloride], the “weight gain (%)” value in data set [1] (Hydrochloride) amounted to 46.67%. Further, the “Crystallinity by PXRD” value in data set [2] was “amorphous”.
Take `CCOc1cc2ncc(C#N)c(Nc3ccc(Oc4ccccc4)cc3)c2cc1NC(=O)/C=C/CN(C)C` [Sulphate salt, (E)-N-(3-cyano-7-ethoxy-4-((4-phenoxyphenyl)amino)quinolin-6-yl)-4-(dimethylamino)but-2-enamide Sulfate]: the “weight gain (%)” value in data set [1] (Sulfate) amounted to 36.13%.

Values taken from patent publication US11034656B2, “Maleate salts of (E)-N-(3-cyano-7-ethoxy-4-((4-phenoxyphenyl)amino) quinolin-6-yl)-4-(dimethylamino)but-2-enamide and crystalline forms thereof” (TELIGENE LTD, priority 2017, dated 2021).
